Target: EED-EZH2 (Homo sapiens (Human), UniProt O75530)
Assay: EED-EZH2 AlphaScreen assay
Type: binding
Conditions: 8.7 nM EZH2, 5.0 nM EED, read-out: IC50 Potency Code
Procedure: Biological activity of exemplary substituted pyrrolidones and piperidones was determined by the EED-EZH2 AlphaScreen assay according the following methodology.
EZH2 (non-complexed), His-GST-tags
Anti-FLAG AlphaLISA Acceptor Beads
AlphaScreen GSH Donor Beads
Assay Protocol (Calculated for 384 Wells or 1 Plate)
• 1. Thaw EED and EZH2 proteins on ice. • 2. Prepare 1× HMT Buffer 2: • 1.5 mL of 4× HMT Buffer 2+4.5 mL ddH2O. • 3. Prepare 1.2× EED-EZH2 solution in 1× HMT Buffer 2: 3.4 mL total • 2.1 uL of EED (0.41 mg/mL, 8.04 uM, 1:1608 dilution)+14 uL of EZH2 (0.24 mg/mL, 2.11 uM, 1:243 dilution)+3.384 mL of 1× HMT Buffer 2 • 4. Prepare 1.2× EZH2 solution in 1× HMT Buffer 2 (positive control): 0.168 mL total • 0.69 uL of EZH2 (0.24 mg/mL, 2.11 uM, 1:243 dilution)+167 uL of 1× HMT Buffer 2 • 5. Add 10 μL of 1.2× EED-EZH2 or 1.2× EZH2 solution to each well. • 6. Add compounds in DMSO via Echo transfer and 30 nL DMSO for control wells. • 7. Centrifuge at 15,000 rpm for 10 seconds and allow to incubate at rt for 1 hour. Step Two • 1. Prepare 6× Anti-FLAG and GSH Donor beads in 1× HMT Buffer 2 in the dark: 1 mL total • 10 uL of Anti-FLAG (1:100 dilution)+5 uL of GSH Donor (1:200 dilution)+985 uL of 1× HMT Buffer 2 • 2. Add 2 μL of bead solution to each well. • 3. Centrifuge at 15,000 rpm for 10 seconds and allow to incubate at rt for 1 hour in the dark. • 4. Read plate. Final Concentrations: • 12 μL volume per well • 8.7 nM EZH2 • 5.0 nM EED • DMSO<0.5% Calculations: • 1. Average EZH2 only wells (positive control) and subtract from all other wells. • 2. Average EED-EZH2 only wells (negative control) to indicate 100% signal or 0% inhibition. • 3. Normalize each well to the average 100% signal from step 2. • 4. Report either as normalized % inhibition or normalized % signal. • Use GraphPad to Calculate IC50.

Chain of EED-EZH2 (O75530 2-441): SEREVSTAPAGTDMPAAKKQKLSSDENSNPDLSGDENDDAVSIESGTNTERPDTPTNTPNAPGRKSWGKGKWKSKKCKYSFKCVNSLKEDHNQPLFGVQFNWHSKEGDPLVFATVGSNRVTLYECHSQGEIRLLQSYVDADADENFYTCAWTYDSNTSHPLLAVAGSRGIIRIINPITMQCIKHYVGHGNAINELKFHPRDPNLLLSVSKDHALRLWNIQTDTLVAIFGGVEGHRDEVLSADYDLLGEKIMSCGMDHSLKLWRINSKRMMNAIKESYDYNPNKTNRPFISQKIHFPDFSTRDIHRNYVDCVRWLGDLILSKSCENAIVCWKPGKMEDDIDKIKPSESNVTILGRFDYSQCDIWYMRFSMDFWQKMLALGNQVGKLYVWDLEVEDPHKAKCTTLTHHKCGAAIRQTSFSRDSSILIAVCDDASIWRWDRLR

SMILES	IC50
O=C(NC1CC(=O)N(Cc2ccccc2C(F)(F)F)C1)c1cscn1 (stereo not shown) [NUCC-0202759]	> 50 µM
O=C(NC1CC(=O)N(Cc2ccccc2C(F)(F)F)C1)c1ccccc1O (stereo not shown) [NUCC-0202669]	> 50 µM
N#Cc1cccc(C(=O)NC2CC(=O)N(Cc3ccccc3[N+](=O)[O-])C2)c1 (stereo not shown) [NUCC-0202659]	> 50 µM
COc1ccc(C)cc1C(=O)NC1CC(=O)N(Cc2ccc(Cl)c(Cl)c2)C1 (stereo not shown) [NUCC-0202673]	> 50 µM
Nc1ccc(F)cc1C(=O)NC1CC(=O)N(Cc2ccccc2C(F)(F)F)C1 (stereo not shown) [NUCC-0223634]	> 50 µM
Cc1ccc(O)cc1C(=O)NC1CC(=O)N(Cc2ccccc2C(F)(F)F)C1 (stereo not shown) [NUCC-0202754]	> 50 µM
O=C(NC1CC(=O)N(Cc2ccccc2[N+](=O)[O-])C1)c1cccnc1 (stereo not shown) [NUCC-0202657]	> 50 µM
O=C1CC(Nc2n[nH]c3ccccc23)CN1Cc1ccccc1C(F)(F)F (stereo not shown) [NUCC-0202766]	> 50 µM
O=C(NC1CCN(Cc2ccccc2C(F)(F)F)C1=O)c1cccc(C(F)(F)F)c1O (stereo not shown) [NUCC-0223823]	> 50 µM
O=C(NC1CC(=O)N(Cc2ccccc2C(F)(F)F)C1)c1cnon1 (stereo not shown) [NUCC-0202755]	> 50 µM
O=C(NC1CCC(=O)N(Cc2ccccc2C(F)(F)F)C1)c1ccc(C(F)(F)F)cc1O (stereo not shown) [NUCC-0223820]	> 50 µM
Cc1c(C(=O)NC2CC(=O)N(Cc3ccccc3C(F)(F)F)C2)cccc1[N+](=O)[O-] (stereo not shown) [NUCC-0202662]	> 50 µM
O=C(NC1CC(=O)N(Cc2ccccc2C(F)(F)F)C1)c1ccccc1F (stereo not shown) [NUCC-0202763]	> 50 µM
Nc1ccc(C(F)(F)F)cc1C(=O)NC1CC(=O)N(Cc2ccccc2C(F)(F)F)C1 (stereo not shown) [NUCC-0223633]	> 50 µM
Cc1ccc(O)c(S(=O)(=O)NC2CC(=O)N(Cc3ccccc3C(F)(F)F)C2)c1 (stereo not shown) [NUCC-0202835]	> 50 µM
O=C(NC1CCN(Cc2ccccc2C(F)(F)F)C1=O)c1ccc(C(F)(F)F)cc1O (stereo not shown) [NUCC-0223822]	> 50 µM
CCc1ccc(O)c(C(=O)NC2CC(=O)N(Cc3ccccc3C(F)(F)F)C2)c1 (stereo not shown) [NUCC-0202753]	> 50 µM

More lines, now with the values ahead:

IC50	SMILES
1 to 10 µM	CC1(C)C(=O)N(Cc2ccccc2C(F)(F)F)C[C@H]1NC(=O)c1cc(C(F)(F)F)ccc1O [NUCC-0223626]
< 1 µM	O=C(NC1CCN(Cc2ccccc2C(F)(F)F)C1=O)c1cc(C(F)(F)F)ccc1O (stereo not shown) [NUCC-0223821]
> 50 µM	CC(C)(C)c1ccc(O)c(C(=O)NC2CC(=O)N(Cc3ccccc3C(F)(F)F)C2)c1 (stereo not shown) [NUCC-0202752]
> 50 µM	O=C(O)c1ccccc1C(=O)NC1CC(=O)N(Cc2ccc(Cl)c(Cl)c2)C1 (stereo not shown) [NUCC-0202676]
> 50 µM	Cc1ccc(O)c(C(=O)NC2CC(=O)N(Cc3ccccc3C(F)(F)F)C2)c1 (stereo not shown) [NUCC-0202826]
10 to 50 µM	COc1ccc(CN2C[C@@H](NC(=O)c3cc(C)ccc3O)CC2=O)c(OC)c1 [NUCC-0202972]
10 to 50 µM	COc1ccc(C)cc1C(=O)NC1CC(=O)N(Cc2ccccc2C(F)(F)F)C1 (stereo not shown) [NUCC-0202660]
1 to 10 µM	COC(=O)c1ccccc1CN1CC(NC(=O)c2cc(C(F)(F)F)ccc2O)CCC1=O (stereo not shown) [NUCC-0226237]
< 1 µM	CC1(C)C(=O)N(Cc2cccc(C(F)(F)F)c2)CC1NC(=O)c1cc(C(F)(F)F)ccc1O (stereo not shown) [NUCC-0226236]
< 1 µM	O=C(NC1CC(=O)N(Cc2cccc(C(F)(F)F)c2)C1)c1cc(C(F)(F)F)ccc1O (stereo not shown) [NUCC-0223625]
< 1 µM	O=C(NCC1CC(=O)N(Cc2ccccc2C(F)(F)F)C1)c1cc(C(F)(F)F)ccc1O (stereo not shown) [NUCC-0223627]
10 to 50 µM	O=C(NC1CC(=O)N(Cc2ccccc2C(F)(F)F)C1)c1cc2ccccc2cc1O (stereo not shown) [NUCC-0202830]
1 to 10 µM	Cc1ccc(O)c(C(=O)NC2CCC(=O)N(Cc3ccccc3C(F)(F)F)C2)c1 (stereo not shown) [NUCC-0202971]
10 to 50 µM	CC(=O)N1CCCC(CN2CC(NC(=O)c3cc(C)ccc3O)CC2=O)C1 (stereo not shown) [NUCC-0202970]
1 to 10 µM	O=C(N[C@@H]1CC(=O)N(Cc2cccc(C(F)(F)F)c2)C1)c1cc(C(F)(F)F)ccc1O [NUCC-0226235]
1 to 10 µM	Cc1ccc(O)c(C(=O)NC2CC(=O)N(Cc3ccccc3C(=O)O)C2)c1 (stereo not shown) [NUCC-0202966]
1 to 10 µM	O=C(N[C@@H]1CCN(Cc2cccc(C(F)(F)F)c2)C1=O)c1cc(C(F)(F)F)ccc1O [NUCC-0226245]
10 to 50 µM	Cc1ccc(O)c(C(=O)NC2CC(=O)N(Cc3ccc(Cl)c(Cl)c3)C2)c1 (stereo not shown) [NUCC-0202672]
10 to 50 µM	CC1(C)C(=O)N(Cc2ccccc2C(F)(F)F)CC1NC(=O)c1cc(C(F)(F)F)ccc1O (stereo not shown) [NUCC-0223629]
10 to 50 µM	Cc1ccc(O)c(C(=O)N[C@@H]2CC(=O)N(Cc3ccc(Cl)c(Cl)c3)C2)c1 [NUCC-0202977]
